This assay deals with Phosphorylated Ribosomal Protein S6 (RPS6) in THP-1 cells. As to the kind of experiment: THP-1 RPS6 ELISA Assay. It counts as cell-based. As to conditions: Homo sapiens, 2 hours with compound, 10 nM MCP-1 for 15 minutes, read-out: THP p-RPS6 ELISA IC50. The method, then: To measure the Phosphorylated Ribosomal Protein S6 (RPS6) in cell lysates, THP-1 cells (Human Acute Monocytic Leukemia) are purchased from ATCC (Manassas, Va.) and maintained in RPMI with 10% FBS (Gibco/Life Technologies, Carlsbad, Calif.). For the assay, THP-1 cells are serum starved overnight in RPMI, then plated in RPMI (2×10^5 cells/well in 90 μL) into 96-well flat-bottom tissue culture treated plates (Corning, Corning, N.Y.), in the presence or absence of a concentration range of test compounds. Covered plates are incubated for 2 hours at 37° C., 5% CO2 then treated with or without 10 nM MCP-1 (MYBioSource, San Diego, Calif.) for 15 minutes at 37° C., 5% CO2. Plates are centrifuged at 1600 RPM and supernatants are removed. Cells are lysed in Lysis Buffer (Cell Signaling, Danvers, Mass.) with Protease Inhibitor (Calbiochem/EMD, Germany), PMSF (Sigma, St. Louis, Mo.), HALTS (Thermo Fisher, Rockford, Ill.) for 30 min on wet ice. Cell lysates are frozen at −80° C. before testing. The lysates are tested in the Human/Mouse/Rat Phospho-RPS6 ELISA (R&D Systems, Inc. Minn, Minn.). The plate is measured using a microplate reader (SpectraMax M5—Molecular Devices, LLC Sunnyvale, Calif.) set to 450 nm with a wavelength correction of 540. IC50 determination is performed by fitting the curve of inhibitor percent inhibition versus the log of the inhibitor concentration using the GraphPad Prism 5.0 software.
In general terms: In an ELISA, binding on a coated surface is turned into a signal by an enzyme label.

As usually defined, the IC50 is the concentration needed to halve the response being measured. As to `CN1CCN(S(=O)(=O)Nc2cncc(-c3ccc4nc(-c5nc6ccccc6[nH]5)oc4c3)c2)CC1` [Example 31, N-(5-(2-(1H-Benzo[d]imidazol-2-yl)benzo[d]oxazol-6-yl)pyridin-3-yl)-4-methylpiperazine-1-sulfonamide], the concentration for half-maximal inhibition (IC50) is less than 1 µM.
In the case of `Cc1n[nH]c2ccc(-c3ccc4nc(-c5nc6ccccc6[nH]5)oc4c3)cc12` [Example 50, 2-(1H-Benzimidazol-2-yl)-6-(3-methyl-1H-indazol-5-yl)-1,3-benzoxazole] it was no less than 5 µM.
In the case of `CCS(=O)(=O)Nc1cc(-c2ccc3nc(-c4nc5ccccc5[nH]4)oc3c2)cc(F)c1OC` [Example 80, N-(5-(2-(1H-Benzo[d]imidazol-2-yl)benzo[d]oxazol-6-yl)-3-fluoro-2-methoxyphenyl)ethanesulfonamide bis(trifluoroacetate)] it was no less than 5 µM; in that of `CN(C)S(=O)(=O)Nc1cc(-c2ccc3nc(-c4nc5ccccc5[nH]4)oc3c2)cnc1F` [Example 23, N′-{5-[2-(1H-Benzimidazol-2-yl)-1,3-benzoxazol-6-yl]-2-fluoropyridin-3-yl}-N,N-dimethylsulfamide], less than 1 µM; in that of `CS(=O)(=O)c1cncc(-c2ccc3nc(-c4nc5ccccc5[nH]4)oc3c2)c1` [Example 36, 2-(1H-Benzo[d]imidazol-2-yl)-6-(5-(methylsulfonyl)pyridin-3-yl)benzo[d]oxazole], less than 5 µM.
Regarding `O=S(=O)(Nc1cncc(-c2ccc3nc(-c4nc5ccccc5[nH]4)oc3c2)c1)N1CCCCC1` [Example 20, N-(5-(2-(1H-Benzo[d]imidazol-2-yl)benzo[d]oxazol-6-yl)pyridin-3-yl)piperidine-1-sulfonamide], the IC50 is less than 5 µM.
On to `COc1cc(-c2ccc3nc(-c4nc5ccccc5[nH]4)oc3c2)cnc1F` [Example 69, 2-(1H-Benzo[d]imidazol-2-yl)-6-(6-fluoro-5-methoxypyridin-3-yl)benzo[d]oxazole bis(trifluoroacetate)], for which the IC50 was no less than 5 µM.
In the case of `CCS(=O)(=O)Nc1cc(-c2ccc3nc(-c4nc5c([nH]4)CCCC5)oc3c2)cnc1OC` [Example 66, N-(2-Methoxy-5-(2-(4,5,6,7-tetrahydro-1H-benzo[d]imidazol-2-yl)benzo[d]oxazol-6-yl)pyridin-3-yl)ethanesulfonamide] it was less than 5 µM.
Consider `CN(C)S(=O)(=O)c1cncc(-c2ccc3nc(-c4nc5ccccc5[nH]4)oc3c2)c1` [Example 37, 5-[2-(1H-benzimidazol-2-yl)-1,3-benzoxazol-6-yl]-N,N-dimethylpyridine-3-sulfonamide], for which the 50% inhibitory concentration (IC50) is less than 5 µM.
Consider `CCn1ncc2ccc(-c3ccc4nc(-c5nc6ccccc6[nH]5)oc4c3)cc21` [Example 54, 2-(1H-Benzimidazol-2-yl)-6-(1-ethyl-1H-indazol-6-yl)-1,3-benzoxazole bis(trifluoroacetate)], for which the IC50 is no less than 5 µM.
Take `OC(c1cncc(-c2ccc3nc(-c4ncc[nH]4)oc3c2)c1)C(F)(F)F` (stereo not shown) [Example 61, 1-(5-(2-(1H-Imidazol-2-yl)benzo[d]oxazol-6-yl)pyridin-3-yl)-2,2,2-trifluoroethanol bis(trifluoroacetate)]: the IC50 is less than 1 µM.
As for `c1ccc(Cn2cc(-c3ccc4nc(-c5nc6ccccc6[nH]5)oc4c3)cn2)cc1` [Example 48, 2-(1H-Benzimidazol-2-yl)-6-(1-benzyl-1H-pyrazol-4-yl)-1,3-benzoxazole], the figure is no less than 5 µM; as for `CCCc1nc(-c2nc3ccc(-c4cncc(NS(=O)(=O)CC)c4)cc3o2)[nH]c1C` [Example 64, N-(5-(2-(5-Methyl-4-propyl-1H-imidazol-2-yl)benzo[d]oxazol-6-yl)pyridin-3-yl)ethanesulfonamide bis(trifluoroacetate)], no less than 5 µM.
Turning to `c1ccc2[nH]c(-c3nc4ccc(-c5ccc6[nH]ncc6c5)cc4o3)nc2c1` [Example 49, 2-(1H-Benzimidazol-2-yl)-6-(1H-indazol-5-yl)-1,3-benzoxazole], the IC50 is no less than 5 µM.
As for `CCS(=O)(=O)Nc1cc(-c2ccc3nc(-c4nc5ccccc5[nH]4)oc3c2)cnc1C` [Example 25, N-(5-(2-(1H-Benzo[d]imidazol-2-yl)benzo[d]oxazol-6-yl)-2-methylpyridin-3-yl)ethanesulfonamide], the figure is less than 5 µM; as for `O=S(=O)(Nc1cc(-c2ccc3nc(-c4nc5ccccc5[nH]4)oc3c2)cnc1Cl)c1ccc(F)cc1` [Example 29, N-(5-(2-(1H-Benzo[d]imidazol-2-yl)benzo[d]oxazol-6-yl)-2-chloropyridin-3-yl)-4-fluorobenzene-sulfonamide], less than 1 µM.
As for `O=S(=O)(Nc1cncc(-c2ccc3nc(-c4nc5ccccc5[nH]4)oc3c2)c1)c1ccc(F)cc1` [Example 17, N-(5-(2-(1H-Benzo[d]imidazol-2-yl)benzo[d]oxazol-6-yl)pyridin-3-yl)-4-fluorobenzenesulfonamide], the figure is less than 1 µM; as for `O=S(=O)(CC(F)(F)F)Nc1cncc(-c2ccc3nc(-c4nc5ccccc5[nH]4)oc3c2)c1` [Example 77, N-(5-(2-(1H-Benzo[d]imidazol-2-yl)benzo[d]oxazol-6-yl)pyridin-3-yl)-2,2,2-trifluoroethanesulfonamide bis(trifluoroacetate)], less than 1 µM; as for `CCS(=O)(=O)n1ncc2ccc(-c3ccc4nc(-c5nc6ccccc6[nH]5)oc4c3)cc21` [Example 52, 6-[1-(Ethylsulfonyl)-1H-indazol-6-yl]-2-(1H-benzimidazol-2-yl)-1,3-benzoxazole], no less than 5 µM.
For the compound `O=S(=O)(Nc1cc(-c2ccc3nc(-c4nc5ccccc5[nH]4)oc3c2)cnc1F)c1ccc(F)cc1` [Example 30, N-(5-(2-(1H-Benzo[d]imidazol-2-yl)benzo[d]oxazol-6-yl)-2-fluoropyridin-3-yl)-4-fluorobenzene-sulfonamide], the concentration for half-maximal inhibition (IC50) is less than 1 µM.
In the case of `CN(C)S(=O)(=O)Nc1cncc(-c2ccc3nc(-c4ncc[nH]4)oc3c2)c1` [Example 41, N′-{5-[2-(1H-Imidazol-2-yl)-1,3-benzoxazol-6-yl]pyridin-3-yl}-N,N-dimethylsulfamide] it was less than 1 µM.
As for `Cc1ncc(-c2ccc3nc(-c4nc5ccccc5[nH]4)oc3c2)cc1NS(=O)(=O)c1ccc(F)cc1` [Example 28, N-(5-(2-(1H-Benzo[d]imdiazol-2-yl)benzo[d]oxazol-6-yl)-2-methylpyridin-3-yl)-4-fluorobenzene-sulfonamide], the figure is less than 1 µM.
As for `CCS(=O)(=O)Nc1cc(-c2ccc3nc(-c4nc5ccccc5[nH]4)oc3c2)cnc1Cl` [Example 26, N-(5-(2-(1H-Benzo[d]imidazol-2-yl)benzo[d]oxazol-6-yl)-2-chloropyridin-3-yl)ethanesulfonamide], the IC50 was less than 1 µM.
In the case of `O=S(=O)(Nc1cncc(-c2ccc3nc(-c4ncc[nH]4)oc3c2)c1)c1ccc(F)cc1` [Example 39, N-(5-(2-(1H-Imidazol-2-yl)benzo[d]oxazol-6-yl)pyridin-3-yl)-4-fluorobenzenesulfonamide], the IC50 was less than 1 µM.
As for `COc1cncc(-c2ccc3nc(-c4cnc(C5CC5)[nH]4)oc3c2)c1` [Example 42, 2-(2-Cyclopropyl-1H-imidazol-5-yl)-6-(5-methoxypyridin-3-yl)benzo[d]oxazole], the figure is no less than 5 µM; as for `CCS(=O)(=O)Nc1cncc(-c2ccc3nc(-c4ncc[nH]4)oc3c2)c1` [Example 40, N-(5-(2-(1H-Imidazol-2-yl)benzo[d]oxazol-6-yl)pyridin-3-yl)ethanesulfonamide], less than 5 µM.
Regarding `CCn1ncc2ncc(-c3ccc4nc(-c5nc6ccccc6[nH]5)oc4c3)cc21` [Example 57, 6-[2-(1H-Benzimidazol-2-yl)-1,3-benzoxazol-6-yl]-1-ethyl-1H-pyrazolo[4,3-b]pyridine tris(trifluoroacetate)], the IC50 was no less than 5 µM.
As for `Cc1nc(-c2nc3ccc(-c4cncc(C(O)C(F)(F)F)c4)cc3o2)[nH]c1C` (stereo not shown) [Example 67, 1-(5-(2-(4,5-Dimethyl-1H-imidazol-2-yl)benzo[d]oxazol-6-yl)pyridin-3-yl)-2,2,2-trifluoroethanol bis(trifluoroacetate)], the figure is less than 1 µM.
In the case of `CN1CCN(S(=O)(=O)Nc2cc(-c3ccc4nc(-c5nc6ccccc6[nH]5)oc4c3)cnc2F)CC1` [Example 32, N-(5-(2-(1H-Benzo[d]imidazol-2-yl)benzo[d]oxazol-6-yl)-2-fluoropyridin-3-yl)-4-methylpiperazine-1-sulfonamide], the IC50 is less than 1 µM.
Turning to `Nc1ncc(-c2ccc3nc(-c4nc5ccccc5[nH]4)oc3c2)cc1C(F)(F)F` [Example 56, 5-[2-(1H-Benzimidazol-2-yl)-1,3-benzoxazol-6-yl]-3-(trifluoromethyl)pyridin-2-amine bis(trifluoroacetate)], the concentration for half-maximal inhibition (IC50) is no less than 5 µM.
In the case of `CCS(=O)(=O)Nc1cc(-c2ccc3nc(-c4nc5ccccc5[nH]4)oc3c2)ccc1F` [Example 60, N-{5-[2-(1H-Benzimidazol-2-yl)-1,3-benzoxazol-6-yl]-2-fluorophenyl}ethanesulfonamide] it was no less than 5 µM.

The record behind these values is patent publication US10022387B2, “Aza-heteroaryl compounds as PI3K-gamma inhibitors” (Incyte Corporation, priority 2015, dated 2018).
